Key:
Format in all cases: in vivo
[1] = system: Amaranthus retroflexus (AMARE); experiment: Pre-emergence herbicidal activity, Amaranthus retroflexus; design: key: 5=total damage to plant; 0=no damage to plant; details: 1000 g/ha, evaluated after 13 days, Test 1b
Protocol: (§1) Seeds of a variety of test species were sown in standard soil in pots: Triticum aestivium (TRZAW), Avena fatua (AVEFA), Alopecurus myosuroides (ALOMY), Echinochloa crus-galli (ECHCG), Lolium perenne (LOLPE), Zea Mays (ZEAMX), Abutilon theophrasti (ABUTH), Amaranthus retroflexus (AMARE) and Setaria faberi (SETFA). After cultivation for one day (pre-emergence) under controlled conditions in a glasshouse (at 24/16° C., day/night; 14 hours light; 65% humidity), the plants were sprayed with an aqueous spray solution derived from the formulation of the technical active ingredient in acetone/water (50:50) solution containing 0.5% Tween 20 (polyoxyethelyene sorbitan monolaurate, CAS RN 9005-64-5). The test plants were then grown in a glasshouse under controlled conditions (at 24/16°, day/night; 14 hours light; 65% humidity) and watered twice daily. After 13 days, the test was evaluated (5=total damage to plant; 0=no damage to plant).

[2] = system: Abutilon theophrasti (ABUTH); experiment: Post-emergence herbicidal activity, Abutilon theophrasti; design: key: 5=total damage to plant; 0=no damage to plant; details: 1000 g/ha, evaluated after 13 days, Test 2b
Protocol: (§2) Seeds of a variety of test species were sown in standard soil in pots: Triticum aestivium (TRZAW), Avena fatua (AVEFA), Alopecurus myosuroides (ALOMY), Echinochloa crus-galli (ECHCG), Lolium perenne (LOLPE), Zea Mays (ZEAMX), Abutilon theophrasti (ABUTH), Amaranthus retroflexus (AMARE) and Setaria faberi (SETFA). After 8 days cultivation (post-emergence) under controlled conditions in a glasshouse (at 24/16° C., day/night; 14 hours light; 65% humidity), the plants were sprayed with an aqueous spray solution derived from the formulation of the technical active ingredient in acetone/water (50:50) solution containing 0.5% Tween 20 (polyoxyethelyene sorbitan monolaurate, CAS RN 9005-64-5). The test plants were then grown in a glasshouse under controlled conditions (at 24/16° C., day/night; 14 hours light; 65% humidity) and watered twice daily. After 13 days, the test was evaluated (5=total damage to plant; 0=no damage to plant).

[3] = system: Lolium perenne (LOLPE); experiment: Post-emergence herbicidal activity, Lolium perenne; details: 1000 g/ha, evaluated after 13 days, Test 2b
Method in brief: (§3)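 Pot-grown plants sprayed 8 days after sowing with compound in acetone/water (50:50) containing 0.5% Tween 20, in a glasshouse at 24/16 °C day/night, 14 h light, 65% humidity. Damage scored 13 days after spraying on a 0–5 scale (5 = total damage, 0 = none).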

[4] = system: Amaranthus retroflexus (AMARE); experiment: Post-emergence herbicidal activity, Amaranthus retroflexus; design: key: 5=total damage to plant; 0=no damage to plant; details: 1000 g/ha, evaluated after 13 days, Test 2b
Protocol: as §2

[5] = system: Echinochloa crus-galli (ECHCG); experiment: Post-emergence herbicidal activity, Echinochloa crus-galli; design: key: 5=total damage to plant; 0=no damage to plant; details: 1000 g/ha, evaluated after 13 days, Test 2b
Method in brief: as §3

[6] = system: Setaria faberi (SETFA); experiment: Pre-emergence herbicidal activity, Setaria faberi; design: key: 5=total damage to plant; 0=no damage to plant; details: 1000 g/ha, evaluated after 13 days, Test 1b
Method in brief: (§4)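 First, seeds were sown in standard soil and held one day under glasshouse conditions. Next, soil was sprayed with the active ingredient formulated in 50:50 acetone/water plus 0.5% Tween 20. Plants then grew at 24/16 °C day/night with 14 h light and 65% humidity before evaluation after 13 days.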

[7] = system: Zea Mays (ZEAMX); experiment: Post-emergence herbicidal activity, Zea Mays; design: key: 5=total damage to plant; 0=no damage to plant; details: 1000 g/ha, evaluated after 13 days, Test 2b
Protocol: as §2

[8] = system: Abutilon theophrasti (ABUTH); experiment: Pre-emergence herbicidal activity, Abutilon theophrasti; design: key: 5=total damage to plant; 0=no damage to plant; details: 1000 g/ha, evaluated after 13 days, Test 1b
Protocol: as §1

[9] = system: Echinochloa crus-galli (ECHCG); experiment: Pre-emergence herbicidal activity, Echinochloa crus-galli; design: key: 5=total damage to plant; 0=no damage to plant; details: 1000 g/ha, evaluated after 13 days, Test 1b
Method in brief: as §4

[10] = system: Setaria faberi (SETFA); experiment: Post-emergence herbicidal activity, Setaria faberi; design: key: 5=total damage to plant; 0=no damage to plant; details: 1000 g/ha, evaluated after 13 days, Test 2b
Method in brief: as §3

[11] = system: Lolium perenne (LOLPE); experiment: Pre-emergence herbicidal activity, Lolium perenne; design: key: 5=total damage to plant; 0=no damage to plant; details: 1000 g/ha, evaluated after 13 days, Test 1b
Method in brief: as §4

[12] = system: Zea Mays (ZEAMX); experiment: Pre-emergence herbicidal activity, Zea Mays; design: key: 5=total damage to plant; 0=no damage to plant; details: 1000 g/ha, evaluated after 13 days, Test 1b
Protocol: as §1

Row | Structure (SMILES) | AMARE damage score (0-5) [1] | ABUTH damage score (0-5) [2] | LOLPE damage score (0-5) [3] | AMARE damage score (0-5) [4] | ECHCG damage score (0-5) [5] | SETFA damage score (0-5) [6] | ZEAMX damage score (0-5) [7] | ABUTH damage score (0-5) [8] | ECHCG damage score (0-5) [9] | SETFA damage score (0-5) [10] | LOLPE damage score (0-5) [11] | ZEAMX damage score (0-5) [12]
1 | COc1cncc(-c2ccc(N(C)C(=O)OC(C)(C)C)c(C(F)(F)F)n2)c1 [Compound B21] | 1 | 0 | 1 | 0 | 2 | 1 | 2 | 1 | 0 | 3 | 0 | 0
2 | CN(C(=O)OC(C)(C)C)c1ccc(-c2cccnc2)nc1C(F)(F)F [Compound B22] | 1 | 0 | 3 | 0 | 4 | 4 | 2 | 1 | 3 | 4 | 1 | 0
3 | COc1cncc(-c2ccc(NC(=O)OC(C)(C)C)c(C)n2)c1 [Compound B23] | 1 | 1 | 2 | 1 | 2 | 4 | 5 | 1 | 1 | 3 | 1 | 1
4 | Cc1nc(-c2cncc(C(F)(F)F)c2)ccc1NC(=O)OC(C)(C)C [Compound B24] | 1 | 1 | 1 | 2 | 2 | 1 | 2 | 1 | 0 | 2 | 0 | 1
5 | Cc1nc(-c2cccnc2)ccc1NC(=O)OC(C)(C)C [Compound B25] | 1 | 2 | 4 | 2 | 3 | 5 | 4 | 1 | 2 | 5 | 2 | 3
6 | CC(C)(C)OC(=O)Nc1ccc(-c2cncnc2)nc1Cl [Compound B27] | 0 | 2 | 2 | 2 | 4 | 4 | 3 | 0 | 4 | 5 | 1 | 2
7 | Cc1nc(-c2cncnc2)ccc1NC(=O)OC(C)(C)C [Compound B28] | 0 | 0 | 4 | 0 | 4 | 2 | 5 | 0 | 2 | 4 | 1 | 3
8 | CN(C(=O)OC(C)(C)C)c1ccc(-c2cncc(F)c2)nc1C(F)(F)F [Compound B29, tert-butyl N-[6-(5-fluoro-3-pyridyl)-2-(trifluoromethyl)-3-pyridyl]-N-methyl-carbamate] | 2 | 1 | 3 | 1 | 4 | 4 | 5 | 1 | 4 | 5 | 1 | 3
9 | CC(C)(C)OC(=O)Nc1ccc(-c2cncc(F)c2)nc1C(F)(F)F [Compound B30, tert-butyl N-[6-(5-fluoro-3-pyridyl)-2-(trifluoromethyl)-3-pyridyl]carbamate] | 2 | 0 | 4 | 0 | 5 | 4 | 5 | 0 | 3 | 5 | 1 | 5
10 | CN(C(=O)OC(C)(C)C)c1ccc(-c2cncnc2)nc1C(F)(F)F [Compound B31] | 1 | 1 | 2 | 1 | 4 | 5 | 5 | 0 | 3 | 5 | 1 | 4
11 | CC(C)(C)OC(=O)Nc1ccc(-c2cncnc2)nc1C(F)(F)F [Compound B32, tert-butyl N-[6-pyrimidin-5-yl-2-(trifluoromethyl)-3-pyridyl]carbamate] | 0 | 0 | 2 | 0 | 4 | 5 | 5 | 0 | 3 | 5 | 1 | 5

Reference: patent US20210127673A1, “HERBICIDES” (SYNGENTA PARTICIPATIONS AG, priority 2016, published 2021)
